# Measured values: publication PMC9057582, “HIF inhibitor 32-134D eradicates murine hepatocellular carcinoma in combination with anti-PD1 therapy” (The Journal of Clinical Investigation, 2022)
# Assays:
# Hepa1-6 tumors = experiment: Intratumoral mRNA (RT-qPCR, RT-qPCR array) and protein (ELISA) expression in Hepa1-6 tumors; format: in vivo, C57L mice
# Method: By contrast, the expression of mRNAs encoding the chemokine CXCL1 and interleukins IL-6 and IL-10, which recruit/activate TAMs and/or MDSCs (Supplemental Table 4), was inhibited by 32-134D treatment (P < 0.05; Figure 6D).
# Figure 6 Effect of 32-134D on intratumoral gene expression. (A–D) C57L mice were injected with Hepa1-6 HCC cells subcutaneously and when tumors reached a volume of 200 mm^3, the mice were treated with vehicle (blue bars) or 32-134D (40 mg/kg; red bars) by daily intraperitoneal injection for 8 days. The tumors were harvested and mRNA was quantified by RT-qPCR and normalized to blue (mean ± SEM, n = 4). *P < 0.05 versus blue (ANOVA with Bonferroni’s post hoc test). (E) Effect of 32-134D on intratumoral expression of cytokines and chemokines. Total RNA isolated from tumors of 32-134D–treated versus vehicle-treated mice (n = 3 each) was analyzed using an RT-qPCR array and the ratio of mean expression (32-134D/vehicle) was determined. mRNAs with a significant difference between groups (P < 0.05, Student’s t test) are annotated.
# Figure 7 Effect of 32-134D on intratumoral expression of immunoregulatory proteins. (A–H) Lysates prepared from tumors of 32-134D–treated versus vehicle-treated mice were subjected to ELISA for secreted proteins mediating antitumor immunity (CXCL2, CXCL9, CXCL10) or immunosuppression (CXCL1, IL-6, IL-10, VEGFA). The data are presented as mean ± SEM (n = 4 each). *P < 0.05 (Mann-Whitney test).
# Tumors were homogenized in ice-cold PBS supplemented with 1% Triton X-100 and PIs, centrifuged at 10,000g for 20 minutes to pellet debris, and the supernatant was collected for ELISA using commercial kits (Supplemental Table 6). Optical density was obtained at 450 nm (corrected for readings at 570 nm) using the VICTOR Nivo plate reader. Sample protein concentration was calculated by linear regression from a standard curve.
# Total RNA from Hepa1-6 tumors was analyzed using the RT^2 Profiler PCR Array of Mouse Cytokines and Chemokines (Supplemental Table 6) according to the manufacturer’s instructions.
# [1] = test system: HIF-1α and HIF-2α protein; experiment: Immunoblot of nuclear extracts of Hep3B cells; format: cell-based, human; conditions: 5 μM, 24 hours
# Method: Figure 1 Identification of HIF inhibitors. (A) Hep3B-c1 cells were stably transfected with firefly luciferase (FLuc) reporter p2.1, which contains a hypoxia-response element (HRE), and Renilla luciferase (RLuc) reporter pSVR. (B) Hep3B-c1 cells were incubated with vehicle (Veh; 0.1% DMSO; blue bars) or 10 μM 32-134D (red bars) at 20% O2 (n = 6) or 1% O2 (n = 12) for 24 hours. Cell lysates were assayed for Fluc/Rluc activity (mean ± SEM); *P < 0.05 versus vehicle (χ^2 test). (C) Chemical structures and IC50 values for HIF inhibitors. (D and E) Hep3B cells were exposed to 20% O2 with vehicle, or 1% O2 with vehicle (blue bar), 32-134D (red bars), 33-063 (green bars), or PT2385 (brown bars) for 24 hours and CA9 (D) and EPO (E) mRNAs were quantified by RT-qPCR. […] (F) Hep3B cells were exposed to 20% or 1% O2 in the presence of vehicle or 1% O2 in the presence of 5 μM 32-134D (n = 3 each) for 24 hours. RNA sequencing identified genes with hypoxia-induced expression (blue circle) and genes that were inhibited by 32-134D (orange circle), based on FDR < 0.05 and fold change > 1.5. (G) Hep3B cells were exposed to 20% or 1% O2 for 24 hours in the presence of vehicle or 5 μM 32-134D, nuclear extracts were prepared, and immunoblot assays were performed. […]
# [2] = RT-qPCR array of 84 mRNAs, P < 0.05
# [3] = RT-qPCR, 40 mg/kg, 8 days, P < 0.05
compound,measurement,setting,value
Brc1ccc2c(-c3csc(-c4c[nH]c5c(Br)cccc45)n3)c[nH]c2c1 [Compound 32-134D],"CXCL1, IL-6, IL-10, and VEGFA protein in tumor lysates",Hepa1-6 tumors; ELISA,decreased levels
same,"CXCL2, CXCL9, and CXCL10 protein in tumor lysates","Hepa1-6 tumors; ELISA, P < 0.05",significantly increased levels
same,number of cytokine/chemokine mRNAs with decreased expression,Hepa1-6 tumors; [2],40 mRNAs
same,number of cytokine/chemokine mRNAs with increased expression,Hepa1-6 tumors; [2],5 mRNAs
same,"tumor expression of CXCL1, IL-6 and IL-10 mRNA",Hepa1-6 tumors; [3],inhibited
same,"tumor expression of CXCL9, CXCL10, and IFN-γ mRNA",Hepa1-6 tumors; [3],increased
same,"tumor mRNAs encoding angiogenic factors (ANGPTL4, EPO, PGF, VEGFA) and immunosuppression proteins (B7H4, CD47, CD73, PDL1, SLC2A1, HAVCR2, CD70, LDHA, ENTPD1, CA9)",Hepa1-6 tumors; [3],significantly decreased
same,HIF-1α protein expression,[1],inhibited
